# Experimental data published in patent US4469701A, “Pyrrolid-3-en-2-ones and pharmaceutical methods of use thereof” (Stauffer Chemical Company, priority 1983, dated 1984).
# Assays:
# [1] = system: spontaneously hypertensive rats (SHR); test: Antihypertensive: blood pressure (tail cuff) in spontaneously hypertensive rats (SHR); format: in vivo, rat; details: Rattus norvegicus; 6 hr. after a 100 mg/kg oral dose; significance >10; read-out: Antihypertensive: percent decrease in systolic blood pressure in spontaneously hypertensive rats
# Description: Blood pressure was measured indirectly (tail cuff) in unanesthetized, unheated spontaneously hypertensive rats (SHR) before and 2, 4, and 6 hours after p.o. dosing. Reduction in mean pressure by more than 10% (>10) at any two consecutive measurement times after dosing indicates antihypertensive activity.
# rats [2] = test: Bradycardia: heart rate by EKG in rats; format: in vivo, rat
# Description: […] Decrease in heart rate by more than 10% (>10) is considered a bradycardic effect.
# Percent decrease in heart rate 45 min. after a 5
# mg/kg oral dose in rats.
# mice = test: Antiarrhythmic: chloroform-induced cardiac arrhythmia in mice; format: in vivo, mouse; details: 15 min. after a 200 mg/kg intraperitoneal dose; significance <2
# Description: ^2 A = Antiarrythmic. Less than 2/3 mouse hearts fibrillating 15 min.
# [3] = system: hypercholesterolemic mice; test: Hypocholesterolemic: serum cholesterol in hypercholesterolemic mice; format: in vivo, mouse
# Description: Mice made hypercholesterolemic by being fed a high cholesterol-cholic acid diet for 7 days were dosed on the sixth and seventh days, p.o. After fasting overnight, reduction in serum cholesterol concentration by more than 15% (>15) from hypercholesterolemic control mice indicates activity.
# ^4 C = Hypocholesterolemic. Percent decrease in serum cholesterol in
# hypercholesterolemic mice given 2 oral doses of 200 mg/kg drug candidate
# rats [4] = test: Antiulcer: stress induced gastric ulcers in rats; format: in vivo, rat
# Description: Fasted rats were dosed, p.o., 30 minutes before immobilization in wire mesh and partial immersion in water for 4 hours. Inhibition of the resulting stress induced gastric ulcers by more than 60% (>60) indicates activity.
# ^6 U = Antiulcerative. Percent inhibition of stress ulcers 4 hr.
# following a 50 mg/kg oral dose in rats.
# [5] = system: hypercholesterolemic mice; test: HP-betalipoprotein: serum heparin precipitating lipoprotein (HPL); format: in vivo, mouse; details: 200 and 400 mg/kg, p.o.
# From the text: Reduction of serum heparin precipitating lipoprotein (HPL) concentrations (corresponding to low density lipoprotein and very low density lipoprotein fractions) in the same hypercholesterolemic mice from Test 6 above by more than 20% (>20) from control animals indicates activity.
# [6] = Anticholinergic properties (overall statement); details: in vivo
# Estrogenic effects = details: in vivo
smiles,measurement,setting,value
CC1(C)CCCC(C)(C)N1CC1=CC(=O)N(c2cc(C(F)(F)F)ccc2Cl)C1 [Compound 10],inhibition in vivo at 100 mg/kg,[1],15%
same,inhibition in vivo at 5 mg/kg,"rats [2]; Rattus norvegicus, 0.75 h, 45 min. after a 5 mg/kg oral dose in rats, significance >10, read-out: B = Bradycardiac: percent decrease in heart rate",1%
same,"Bradycardic effects, in words","rats [2]; rat, in vivo",No
same,A = Antiarrythmic: mouse hearts fibrillating (of 3),mice,3
same,"Serum cholesterol, in words","[3]; 200 and 400 mg/kg, p.o.",Marked reductions
same,inhibition in vivo at 200 mg/kg,"[3]; Mus musculus, hypercholesterolemic mice, 2 oral doses of 200 mg/kg 20 hr. apart, significance >20, read-out: C = Hypocholesterolemic: percent decrease in serum cholesterol",46%
same,"Protection from stress-induced gastric ulcers, in words","rats [4]; 50 mg/kg, p.o., rats",partially protected
same,inhibition in vivo at 50 mg/kg,"rats [4]; Rattus norvegicus, 4 hr. following a 50 mg/kg oral dose in rats, significance >60, read-out: U = Antiulcerative: percent inhibition of stress ulcers",75%
same,HPL/cholesterol ratio,[5],large reductions
same,"Heparin precipitating lipoproteins (HPL), in words",[5],Marked reductions
same,Anticholinergic properties/effects,[6],absence of evidence of anticholinergic effects
same,Estrogenic effects,Estrogenic effects,No estrogenic effects
